Test results from patent publication US20210069275A1, “TRADITIONAL CHINESE MEDICINE COMPOSITION FOR IMPROVING BONE HEALTH AND PREPARATION AND USES THEREOF” (Chenland Nutritionals Inc., priority 2020, published 2021).
Marks after values point to notes of the source that are not given here.

How the values were obtained:
Type in all cases: in vivo, rat
osteoporosis model rats [1] = assay: Serum estrogen indicators (E2, FSH) by ELISA in osteoporosis model rats; settings: bilateral ovariectomy female SD rats, intragastric once a day, 8 weeks, 10 mg/kg
Protocol: (§1) Samples: the traditional Chinese medicine (TCM) composition prepared in Example 1, a positive drug (Estradiol Valerate) and a competing drug (Caltrate).
(§2) Female SD rats were randomly divided into sham operation group, model group, positive control group (estradiol valerate), competing drug group (Caltrate), high dose TCM composition (prepared in Example 1) group and low dose TC′M composition (prepared in Example 1) group, and 8 in each group.
(§3) Female SD rats were treated by bilateral ovariectomy to establish osteoporosis model rats.
(§4) The osteoporosis model rats were subjected to intragastric administration once a day and the administration cycle lasted for 8 weeks.
(§5) After 8 weeks, the rats were sacrificed, and blood was collected from the abdominal aorta and subjected to standing for 1 hour. Then the blood sample was centrifuged to collect serum, which was detected for the bone metabolic biochemical indicators, including bone glaprotein (BGP), bone specific alkaline phosphatase (BALP), carboxyterminal propeptide of type I procollagen (PICP) and N-telopeptides of type I collagen (NTX); estrogen indicators, including serum estradiol E2 and follicle stimulating hormone (FSH); and blood biochemical indexes, including serum phosphorus and serum calcium. […]
(§6) The dosage for rats was calculated as follows: • dosage for rat (daily dose for human/60)*6;

osteoporosis model rats [2] = assay: Serum biochemical indexes (phosphorus, calcium) in osteoporosis model rats
Protocol: as §1, §2, §3, §4
(§7) After 8 weeks, the rats were sacrificed, and blood was collected from the abdominal aorta and subjected to standing for 1 hour. Then the blood sample was centrifuged to collect serum, which was detected for the bone metabolic biochemical indicators, including bone glaprotein (BGP), bone specific alkaline phosphatase (BALP), carboxyterminal propeptide of type I procollagen (PICP) and N-telopeptides of type I collagen (NTX); estrogen indicators, including serum estradiol E2 and follicle stimulating hormone (FSH); and blood biochemical indexes, including serum phosphorus and serum calcium. Moreover, the complete bilateral femurs were collected, on which the muscle tissues were, completely removed. The left femur was used for femoral mechanical testing, and the right femur was tested for related parameters such as bone density. The above experimental data was used to evaluate the efficacy of the TCM composition of the disclosure.
(§8) The dosage of the TCM composition was determined based on the recommended crude drug dosage in the pharmacopoeia, and 1 g of extract was obtained after the extraction.
(§9) Positive control group: 0.1 g/day for human.
(§10) Competing drug group (Caltrate): one tablet (1 g)/day and 600 mg of calcium/tablet.
(§11) High dose TCM composition group: 1 g/day for human; low dose TCM composition group: 0.5 g/day for human.
as §6

osteoporosis model rats [3] = assay: Bone metabolic biochemical indicators (BGP, BALP, PICP, NTX) by ELISA in osteoporosis model rats; settings: bilateral ovariectomy female SD rats, intragastric once a day, 8 weeks, serum, 10 mg/kg
Protocol: as §1, §2, §3, §4, §7, §8, §9, §10, §11, §6

osteoporosis model rats [4] = assay: Bone density parameters of right femur in osteoporosis model rats; settings: bilateral ovariectomy female SD rats, intragastric once a day, 8 weeks, femoral metaphysis, 10 mg/kg
Protocol: as §1, §2, §3, §4, §7, §8, §9, §10, §11, §6

osteoporosis model rats [5] = assay: Femoral mechanical testing (left femur) in osteoporosis model rats; settings: bilateral ovariectomy female SD rats, intragastric once a day, 8 weeks, 10 mg/kg
Protocol: as §1, §2, §3, §4, §5, §6

[6] = bilateral ovariectomy female SD rats, intragastric once a day, 8 weeks, 10 mg/kg

## CCCCC(=O)O[C@H]1CC[C@H]2[C@@H]3CCc4cc(O)ccc4[C@H]3CC[C@]12C [Positive control, Estradiol Valerate]
Osteoporosis model rats [1]
  E2 (serum estradiol): 32.45 ± 10.24 pg/mL
  FSH: 96.55 ± 11.84 ng/mL
Osteoporosis model rats [2]; [6]
  Ca (serum calcium): 2.33 ± 0.13 mmol/L
  P (serum phosphorus): 3.1 ± 0.53 mmol/L
Osteoporosis model rats [2]; positive control group, 8 weeks' administration, P<0.05
  serum phosphorus content compared to the model group and the sham-operation group: significantly higher
Osteoporosis model rats [3]
  BALP (bone specific alkaline phosphatase): 764.2 ± 123.81 pg/mL
  BGP (bone glaprotein): 9.93 ± 2.23 ng/mL
  NTX (N-telopeptides of type I collagen): 26.92 ± 5.68 ng/mL
  PICP (carboxyterminal propeptide of type I procollagen): 739.33 ± 175.34 ng/mL
Osteoporosis model rats [4]
  BMD (bone mineral density): 0.198 ± 0.051 g/cm^2
  BV/TV (bone volume fraction): 16.863 ± 5.237 %
  Tb. N (trabecular number): 2.392 ± 0.809* 1/mm
  Tb. Sp (trabecular separation/spacing): 455.6 ± 182.901 μm
Osteoporosis model rats [5]
  Load (maximum load of femur): 109.67 ± 26.78 N
